Reference: patent publication US20240398824A1, “Inhibition Of Rip Kinases For Treating Neurodegenerative Disorders” (The Johns Hopkins University, priority 2018, published 2024)

Tested on: BV-2 microglia
Assay: Real-time PCR of C1q, IL-6 and TNFα in AβO-activated BV-2 microglia
Format: cell-based
Set-up: key to mRNA levels of C1q / mRNA levels of IL-6 / mRNA levels of TNFα: relative expression normalized to GAPDH by 2^-ΔΔCt; PBS = 1
Description: Synthetic Abeta1-42 oligomers were generated as previously described (PMID: 27834631). Hydroxyfluroisopropanol (HFIP)-treated synthethic Abeta1-42 peptides (rPeptide, Bogart, GA, USA) were dissolved in dimethylsulfoxide (DMSO) and further diluted in phosphate-buffered saline (PBS) to obtain a 250 μM stock solution. The stock solution was incubated at 4° C. for at least 24 hours and stored at −80° C. until use. Before use, the solution was centrifuged at 12,000 g for 10 minutes and the supernatant was used as an oligomeric Aβ.
BV-2 microglial cells were cultured in DMEM media. 10^6 of BV-2 microglia in 6 well plate were treated with 2.5 μM of Abeta for 4 hrs. Total RNA from cultured cells was extracted with a RNA isolation kit (Qiagen, Valencia, CA, USA) following manufacturer's instructions. RNA concentration was measured spectrophotometrically using a NanoDrop 2000 (Thermo scientific). Subsequently, 2 μg of total RNA was reverse transcribed to cDNA using the High-Capacity cDNA Reverse Transcription System (Life Technologies, Grand Island, NY, USA). Comparative qPCR was performed using fast SYBR Green Master Mix (Life Technologies) and steponeplus real-time pcr system (Applied Biosystems, Foster City, CA, USA). The expression levels of target genes were normalized to the expression of GAPDH and calculated based on the comparative cycle threshold Ct method^−ΔΔ(2) Ct. (n=3)
To examine the effect of RIPK2 inhibition, 10^6 of BV-2 microglia in 6 well plate were preincubated with DMSO, GSK583 (1 μM, Medchemexpress), OD361 (1 μM, Calbiochem), or Sorafenib (1 μM) for one hour. For mRNA analysis, 5 μM of AβO was treated additional for 4 hours.

[1] = inhibitor 1 μM pretreatment, AβO 5 μM, in words

CC(C)(C)S(=O)(=O)c1ccc2nccc(Nc3n[nH]c4ccc(F)cc34)c2c1 [GSK583, 6-(tert-butylsulfonyl)-N-(5-fluoro-1H-indazol-3-yl) quinolin-4-amine]
mRNA levels of IL-6 (BV-2 microglia preincubated 1 h with inhibitor 1 μM, then AβO 5 μM 4 h, PBS = 1 ± 0.08, Abeta alone 12.53 ± 0.59, ±SD): 4.89 ± 0.23 | mRNA levels of C1q (BV-2 microglia preincubated 1 h with inhibitor 1 μM, then AβO 5 μM 4 h, PBS = 1 ± 0.13, Abeta alone 3.7 ± 0.06, ±SD): 0.87 ± 0.14 | mRNA levels of TNFα (BV-2 microglia preincubated 1 h with inhibitor 1 μM, then AβO 5 μM 4 h, PBS = 1 ± 0.16, Abeta alone 16.19 ± 3.21, ±SD): 3.23 ± 0.27 | microglial activation [1]: blocked microglial activation | release of multiple inflammatory mediators including C1q, IL-6 and TNFα [1]: significantly reduced
